Consider ten compounds from ChEMBL document CHEMBL1201862, “PubChem BioAssay data set” (2004).

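These data come from cells grown in 96-well plates and exposed to compound for 48 hours at five concentrations. Here, GI50 denotes the concentration required for 50% inhibition of growth.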 Activity calls are given as the source filed them. Rule as the data show it: active = GI50 up to about 1.1 µM and inactive = higher.

Among the test systems are NCI-H460; T47D; SF-295; HL-60; OVCAR-8; LOX IMVI; SN12C; COLO 205; SK-MEL-28; NCI-H226; CAKI-1; IGROV-1; SNB-75; UACC-257; PC-3; UO-31; SK-OV-3; NCI-H522; SW-620; RPMI-8226.
Holding throughout (experiment): DTP human tumour cell line panel, 48 h

A word on the GI50: it is the concentration at which growth is held to half of that of the control. As to `CN(C)c1ccc(/C=N/Nc2nc3ccccc3c(=O)n2-c2ccccc2)cc1`, the GI50 with NCI-H460 is > 100 µM (inactive); in the assay on T47D, > 100 µM (inactive); in the assay with SF-295 it was 93.1 µM (inactive); in the assay on HL-60 it was > 100 µM (inactive); in the assay with OVCAR-8 it was 46.9 µM (inactive); in the assay on LOX IMVI, > 100 µM (inactive). Further, the GI50 in the assay on SN12C, in the assay on COLO 205, with SK-MEL-28, in the assay on NCI-H226, in the assay with CAKI-1 and with IGROV-1 was > 100 µM (inactive) throughout. Further, the GI50 in the assay with SNB-75 is 5.75 µM (inactive); in the assay with UACC-257 it was > 100 µM (inactive); with PC-3 it was 55.1 µM (inactive); in the assay with UO-31, > 100 µM (inactive); with SK-OV-3, 72.3 µM (inactive); with NCI-H522, 44.5 µM (inactive). Moreover, the GI50 with SW-620 is > 100 µM (inactive).
As to `COc1cc(-c2nc(N)c(C#N)c3c2CCS(=O)(=O)c2ccc(C)cc2-3)cc(OC)c1OC`, the GI50 in the assay with NCI-H460 was > 100 µM (inactive); with T47D, 98.2 µM (inactive); in the assay on RPMI-8226 it was > 100 µM (inactive); in the assay on HL-60, > 100 µM (inactive); in the assay on OVCAR-8, 4.98 µM (inactive); in the assay on LOX IMVI it was > 100 µM (inactive). Further, the GI50 in the assay on SN12C was 39.6 µM (inactive); in the assay with COLO 205, > 100 µM (inactive); in the assay on SK-MEL-28, > 100 µM (inactive); in the assay on NCI-H226, 9.46 µM (inactive); with CAKI-1 it was > 100 µM (inactive); in the assay with IGROV-1, 18.7 µM (inactive). The GI50 in the assay on SNB-75 was 16.7 µM (inactive); in the assay on UACC-257, > 100 µM (inactive); with PC-3, > 100 µM (inactive); with UO-31 it was > 100 µM (inactive); in the assay on NCI-H522 it was > 100 µM (inactive); in the assay on SW-620, > 100 µM (inactive).
For `CC1=CCC([C@@](C)(O)CCCC(C)(C)N=C=S)CC1` (stereo partly drawn), the GI50 was 16.5 µM (inactive) in the assay with NCI-H460; 21 µM (inactive) in the assay with T47D; 19.4 µM (inactive) in the assay on SF-295; 25.7 µM (inactive) in the assay with RPMI-8226; 21.8 µM (inactive) with HL-60; 17.7 µM (inactive) with OVCAR-8. For the same compound, the GI50 with LOX IMVI was 16 µM (inactive); in the assay on SN12C, 18.1 µM (inactive); with COLO 205, 16.1 µM (inactive); with SK-MEL-28 it was 16.6 µM (inactive); with NCI-H226, 17.2 µM (inactive); with IGROV-1, 20.2 µM (inactive). Besides, the GI50 was 17.8 µM (inactive) in the assay on SNB-75; 19.4 µM (inactive) in the assay on UACC-257; 18.6 µM (inactive) in the assay with PC-3; 13.7 µM (inactive) in the assay on UO-31; 17.9 µM (inactive) with SK-OV-3; 17.3 µM (inactive) in the assay with NCI-H522. Moreover, the GI50 with SW-620 is 18.3 µM (inactive).
For the compound `CC12CC3CC/C(=N\O)C(C1)C3(N1CCOCC1)C/C2=N/O` (stereo not drawn), the GI50 is > 100 µM (inactive) with NCI-H460; > 100 µM (inactive) with T47D; > 100 µM (inactive) with SF-295; 49.8 µM (inactive) in the assay on HL-60; > 100 µM (inactive) with OVCAR-8; > 100 µM (inactive) with LOX IMVI. The GI50 in the assay on SN12C, in the assay on COLO 205, in the assay on SK-MEL-28, with NCI-H226, with CAKI-1 and with IGROV-1 was > 100 µM (inactive) in each case. Moreover, the GI50 with SNB-75 was 25.1 µM (inactive); in the assay with UACC-257 it was > 100 µM (inactive); with PC-3, > 100 µM (inactive); in the assay with UO-31, > 100 µM (inactive); with SK-OV-3 it was > 100 µM (inactive); in the assay on NCI-H522, > 100 µM (inactive). In addition, the GI50 in the assay with SW-620 was > 100 µM (inactive).
With `COc1cc2c(cc1OCCCCOc1cc3nc(C)nc(Cl)c3cc1OC)N=C[C@@H]1CCCN1C2=O`, the GI50 in the assay on NCI-H460 was 3.4 µM (inactive); with T47D it was 15.3 µM (inactive); in the assay on SF-295, 2.43 µM (inactive); in the assay with HL-60, 2.48 µM (inactive); in the assay on OVCAR-8, 3.01 µM (inactive); with LOX IMVI, 1.27 µM (inactive). For the same compound, the GI50 in the assay with SN12C is 1.93 µM (inactive); in the assay with COLO 205 it was 19.1 µM (inactive); in the assay with SK-MEL-28 it was 2.34 µM (inactive); in the assay on NCI-H226, 1.85 µM (inactive); in the assay on CAKI-1, 2.38 µM (inactive); in the assay with IGROV-1, 1.64 µM (inactive). Further, the GI50 with SNB-75 was 1.46 µM (inactive); in the assay on UACC-257, 2.29 µM (inactive); with PC-3, 3.11 µM (inactive); in the assay on UO-31, 1.88 µM (inactive); in the assay on SK-OV-3, 30.4 µM (inactive); in the assay on NCI-H522, 0.637 µM (active). In addition, the GI50 in the assay on SW-620 was 2.54 µM (inactive).
For `NC(=O)C(=CNC(=S)c1ccncc1)C(N)=O`, the GI50 with NCI-H460, with T47D, with SF-295, in the assay with RPMI-8226, in the assay with HL-60 and in the assay on OVCAR-8 was > 100 µM (inactive) throughout. Besides, the GI50 in the assay with LOX IMVI, in the assay with SN12C, in the assay with COLO 205, with NCI-H226, in the assay on CAKI-1 and with IGROV-1 was > 100 µM (inactive) in each case. In addition, the GI50 in the assay on UACC-257, with PC-3, with UO-31, in the assay on SK-OV-3, with NCI-H522 and with SW-620 was > 100 µM (inactive) throughout.
As for `CCOC(=O)CSc1nnc(CSc2nc(-c3ccccc3)c(-c3ccccc3)[nH]2)n1-c1ccccc1`, the GI50 in the assay on NCI-H460 was > 100 µM (inactive); with T47D it was 26.7 µM (inactive); in the assay on SF-295 it was > 100 µM (inactive); with RPMI-8226, > 80.4 µM (inactive); with HL-60, 49.5 µM (inactive); in the assay on OVCAR-8, 18.7 µM (inactive). The GI50 in the assay with LOX IMVI is > 61.5 µM (inactive); in the assay on SN12C, 18.9 µM (inactive); in the assay on COLO 205 it was > 58.2 µM (inactive); with SK-MEL-28 it was > 58.7 µM (inactive); in the assay on NCI-H226 it was 42.3 µM (inactive); with IGROV-1, > 83 µM (inactive). Besides, the GI50 in the assay on SNB-75 was > 100 µM (inactive); in the assay on UACC-257 it was 29.3 µM (inactive); in the assay with PC-3, 20.7 µM (inactive); in the assay with UO-31, 18.2 µM (inactive); with SK-OV-3, 23.4 µM (inactive); in the assay with NCI-H522, > 87.7 µM (inactive). In addition, the GI50 with SW-620 is > 100 µM (inactive).
For the compound `COC(=O)c1nc2n(n1)-c1ccccc1C(=O)N(Cc1ccccc1)C2`, the GI50 in the assay with NCI-H460, with T47D, in the assay with SF-295, with RPMI-8226, with HL-60 and in the assay with OVCAR-8 was > 100 µM (inactive) each time. Besides, the GI50 in the assay with LOX IMVI, with SN12C, with COLO 205, with SK-MEL-28, in the assay with NCI-H226 and in the assay on CAKI-1 was > 100 µM (inactive) each time. Further, the GI50 in the assay with IGROV-1, with UACC-257, in the assay with PC-3, with UO-31, in the assay on SK-OV-3 and in the assay with NCI-H522 was > 100 µM (inactive) throughout. For the same compound, the GI50 in the assay on SW-620 is > 100 µM (inactive).
On to `C=C1C(O)C2(O)OCC34C(CC5C(C)=CC(=O)C(O)C5(C)C23)OC(=O)C(OC(=O)C/C=C(\C)CCCCC)C14` (stereo not drawn), for which the concentration for 50% growth inhibition (GI50) was 0.0125 µM (active) in the assay with NCI-H460; < 0.001 µM (active) in the assay on T47D; 0.0125 µM (active) in the assay on SF-295; 0.014 µM (active) in the assay with RPMI-8226; 0.0125 µM (active) in the assay on HL-60; 0.0125 µM (active) in the assay on OVCAR-8. Moreover, the GI50 is 0.0199 µM (active) with SN12C; 0.0154 µM (active) with COLO 205; 0.0128 µM (active) in the assay with SK-MEL-28; 0.0144 µM (active) with NCI-H226; 0.0427 µM (active) in the assay with CAKI-1; 0.0133 µM (active) in the assay on IGROV-1. For the same compound, the GI50 was 0.0153 µM (active) in the assay on SNB-75; 0.0125 µM (active) with UACC-257; < 0.001 µM (active) in the assay with PC-3; 0.0787 µM (active) with UO-31; 0.0133 µM (active) in the assay on SK-OV-3; 0.0125 µM (active) with NCI-H522. The GI50 with SW-620 is 0.0153 µM (active).
With `N#Cc1c(O)nc2[nH]nc(/N=N\c3c(O)ccc4ccccc34)c2c1-c1ccc(Cl)cc1`, the GI50 with NCI-H460 is 0.0792 µM (active); in the assay on T47D it was 0.173 µM (active); in the assay with SF-295, 0.24 µM (active); with RPMI-8226, 1.56 µM (inactive); with HL-60, 0.0713 µM (active); with OVCAR-8, 0.233 µM (active). The GI50 was 0.057 µM (active) in the assay with LOX IMVI; 0.391 µM (active) with SN12C; 0.433 µM (active) with COLO 205; 0.311 µM (active) in the assay with SK-MEL-28; 0.4 µM (active) in the assay on NCI-H226; 0.282 µM (active) in the assay on CAKI-1. For the same compound, the GI50 in the assay on IGROV-1 is 0.286 µM (active); with UACC-257, 0.851 µM (active); with PC-3, 0.303 µM (active); with UO-31, 0.175 µM (active); with SK-OV-3, 0.187 µM (active); with NCI-H522, 0.248 µM (active). The GI50 in the assay on SW-620 was 0.163 µM (active).
